“And” between values parts separate entries of the source, which are not always exact repeats. Equal entries are not always repeated. “Also recorded” adds a separate entry of the source.

The target in one data set is H3R (Homo sapiens, UniProt Q9Y5N1). In words: CRE luciferase reporter assay for H3R antagonistic activity. The class given is cell-based. As to the method: Firstly, all the target compounds were screened at 5 μM and 50 μM. […] The detailed experimental operations refer to the previous paper.
On the technique in general: In a reporter assay the amount or activity of a reporter protein is the signal.

A short description of data set [1]: Rotarod test for neurotoxicity. The following applies: mice; for Death of treated animals: 300 mg/kg; for Neurotoxicity: rotarod test, i.p., three animals per group. The class given is in vivo. As to the method:
A rotarod test was carried out to estimate the neurological safety of compounds 2h, 4a, and 4b.
(§1) The neurological safety of the compounds 2h, 4a, and 4b was evaluated by the rotarod test. In the MES test, the definition of protection was the reduction or vanishing of the THLE in mice. In the PTZ test, the seizures were induced through the subcutaneous administration of PTZ (85 mg/kg). The antiseizure activities of the compounds in the PTZ test were evaluated by comparing the convulsion scores in mice between taking the compounds or not. VPA and PIT were used as positive drugs. To explore the anticonvulsive mechanism, compound 4a (10 mg/kg) was co-injected with RAMH (10 mg/kg). In addition, the THLE was recorded and compared with that of the mice treated by compound 4a alone. The detailed experimental operations in the MES, PTZ, and rotarod tests refer to our previous paper. All the animal experiments were carried out on 4-week-old KunMing male mice weighing from 20 to 25 g. The mice were housed collectively in polycarbonate cages in groups of 30, where they were maintained on a 12 h light/dark cycle in a temperature controlled (25 ± 2 °C) laboratory with free access to food and water. In the MES and PTZ models, seven animals were used in each group. In the rotarod test, three animals were used in each group. Each animal was used only once. All the experiments referring to animals were applied according to the Guide for the Care and Use of Laboratory Animals and were approved by the Medical Ethics Committee of Jinggangshan University, approval number: 220811002.
In general terms: The rotarod test checks motor coordination on a turning rod.

In data set [2] the test system is maximal electroshock seizure (MES) model. Description: Maximal electroshock seizure (MES) model. The class given is in vivo. As to the method:
as §1, with “One of the two test models is the MES seizure model, another is the PTZ-induced seizure model. […] In addition, the administration of this dosage can minimize the impact of other possible side effects such as central inhibition and cardiac toxicity. […] In addition, the tested dose of VPA was 300 mg/kg. It could be seen that all animals in the control group experienced hindlimb stiffness after the electrical stimulation in the MES model. In the treated group, the definition of protection was the reduction or vanishing of the tonic hind limb extension (THLE) in mice. […] The neurological” for “The neurological”
(The maximal electroshock test induces tonic seizures with an electrical stimulus.)

Data set [3] has the same test system. Also noted: method as in PMID 33325568. Particulars: administrated combined with H3R agonist RAMH; cited from earlier work.
The mark [4] stands for this setting: mice, 3 mg/kg, compared to control (saline).
[5] abbreviates: mice, 10 mg/kg, i.p., compared to control group; 10 mg/kg.
Setting [6] is: mice, doses of 3, 10 and 30 mg/kg.
[7] abbreviates: mice, 10 mg/kg, i.p., compared to control group.

Chain of H3R (Q9Y5N1 whole entry, species assumed): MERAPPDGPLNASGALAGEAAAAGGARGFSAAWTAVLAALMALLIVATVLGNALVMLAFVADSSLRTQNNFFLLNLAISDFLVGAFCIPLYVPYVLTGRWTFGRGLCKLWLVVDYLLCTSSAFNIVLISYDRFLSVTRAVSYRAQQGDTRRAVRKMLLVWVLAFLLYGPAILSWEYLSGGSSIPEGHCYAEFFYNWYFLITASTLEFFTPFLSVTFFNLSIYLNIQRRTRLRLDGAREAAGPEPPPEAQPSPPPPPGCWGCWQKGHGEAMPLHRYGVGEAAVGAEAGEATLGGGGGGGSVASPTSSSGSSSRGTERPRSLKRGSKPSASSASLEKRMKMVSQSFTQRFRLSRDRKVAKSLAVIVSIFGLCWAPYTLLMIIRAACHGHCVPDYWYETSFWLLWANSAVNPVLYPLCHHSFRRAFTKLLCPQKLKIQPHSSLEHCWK

By melting point is commonly meant the temperature, or range, at which the solid turns liquid. What is called IC50 is the concentration that inhibits the measured activity by half. Read a high IC50 as weaker potency in that assay. Turning to `O=C1CCc2cc(OCCCN3CCNCC3)ccc2N1` [Compound 2d, 6-(3-(Piperazin-1-yl)propoxy)-3,4-dihydroquinolin-2(1H)-one], the melting point fell in the range of 150 to 151 °C. At H3R, this molecule yielded an IC50 above 50 µM.
As to `O=C1CCc2cc(OCCCN3CCCCC3)ccc2N1` [Compound 2h, 6-(3-(Piperidin-1-yl)propoxy)-3,4-dihydroquinolin-2(1H)-one], in data set [1], the “Death of treated animals” value is on record as “all animals”. The Neurotoxicity in data set [1] (10 mg/kg) is 0/3; in data set [1] (30 mg/kg) it was 0/3; in data set [1] (100 mg/kg, 100 mg/kg) it was “one mouse in three and 1/3”. The “Protection in MES model at lowest dosage” value in data set [2] (setting [4]) is listed as “no significant difference”. Moreover, the “Duration of tonic hind limb extension (THLE), protection in MES model” value (“Duration of tonic hind limb extension” below) in data set [2] (setting [5]) is reported as “decreased the duration of THLE significantly; also recorded: antiseizure activity”. Further, the “Dose dependence of protection in MES model” value (shortened to “Dose dependence of protection”) in data set [2] (setting [6]) is recorded as “dose-dependent manner”. Moreover, the IC50 at H3R stood at 0.12 µM.
With `O=C1CCc2cc(OCCCN3CCCC3)ccc2N1` [Compound 2c, 6-(3-(Pyrrolidin-1-yl)propoxy)-3,4-dihydroquinolin-2(1H)-one hydrochioride], the melting point was in the range of 120 to 122 °C. For the same molecule, the “Duration of tonic hind limb extension” value in data set [2] (setting [7]) was “no significant difference”. In addition, the IC50 against H3R is 0.47 µM.
In the case of `CCCN1C(=O)CCc2cc(OCCCN3CCCCC3)ccc21` [Compound 4a, 6-(3-(Piperidin-1-yl)propoxy)-1-propyl-3,4-dihydroquinolin-2(1H)-one], the “Death of treated animals” value in data set [1] is reported as “two-thirds of mice”. Moreover, the Neurotoxicity in data set [1] (10 mg/kg) was 0/3; in data set [1] (30 mg/kg), 0/3; in data set [1] (100 mg/kg, 100 mg/kg), “no neurotoxicity and 0/3”. The “Protection in MES model at lowest dosage” value in data set [2] (setting [4]) is recorded as “no significant difference”. In data set [2] (mice, 10 mg/kg i.p., co-injected with RAMH 10 mg/kg i.p.), the “Duration of THLE in MES model when combined with H3R agonist RAMH” value is listed as “fully vanished; also recorded: cannot decrease the duration of THLE”. Moreover, in data set [2] (setting [5]), the “Duration of tonic hind limb extension” value is “decreased the duration of THLE significantly; also recorded: antiseizure activity”. In addition, in data set [2] (setting [6]), the “Dose dependence of protection” value is on record as “dose-dependent manner”. The IC50 on H3R was 0.37 µM.
As for `CCCCCN1C(=O)CCc2cc(OCCCN3CCCCC3)ccc21` [Compound 4b, 1-Pentyl-6-(3-(piperidin-1-yl)propoxy)-3,4-dihydroquinolin-2(1H)-one], in data set [1], the “Death of treated animals” value is recorded as “two-thirds of mice”. Moreover, the Neurotoxicity was 0/3 in data set [1] (10 mg/kg); 0/3 in data set [1] (30 mg/kg); “no neurotoxicity and 0/3” in data set [1] (100 mg/kg, 100 mg/kg). For the same molecule, in data set [2] (setting [4]), the “Protection in MES model at lowest dosage” value is listed as “no significant difference”. For the same molecule, the “Duration of tonic hind limb extension” value in data set [2] (setting [5]) is on record as “decreased the duration of THLE significantly; also recorded: antiseizure activity”. Moreover, in data set [2] (setting [6]), the “Dose dependence of protection” value is “dose-dependent manner”. This molecule had an IC50 on H3R of 1.91 µM.
As to `O=C1CCc2cc(OCCCCCN3CCCCC3)ccc2N1` [Compound 3c, 6-((5-(Piperidin-1-yl)pentyl)oxy)-3,4-dihydroquinolin-2(1H)-one], the melting point is 150 to 151 °C. Moreover, the IC50 against H3R was above 50 µM.
Taken in the same sequence, the figures for `CCCN(CCC)CCCOc1ccc2c(c1)CCC(=O)N2.Cl` [Compound 2b, 6-(3-(Dipropylamino)propoxy)-3,4-dihydroquinolin-2(1H)-one hydrochloride] were 57 to 59 °C and above 50 µM.
On the same counts, the results for `CN1CCN(CCCOc2ccc3c(c2)CCC(=O)N3)CC1` [Compound 2e, 6-(3-(4-Methylpiperazin-1-yl)propoxy)-3,4-dihydroquinolin-2(1H)-one] are 159 to 160 °C and 38.1 µM.
Regarding `Cc1nc(-c2ccc(OCCCN3CCCCC3)cc2)co1` [I], the “Antiseizure activity in MES test when combined with RAMH” value in data set [3] is “completely vanished”.
Take `O=C1CCc2cc(OCCCN3CCN(c4ccccc4)CC3)ccc2N1` [Compound 2f, 6-(3-(4-Phenylpiperazin-1-yl)propoxy)-3,4-dihydroquinolin-2(1H)-one]: the melting point fell in the range of 199 to 201 °C. 25.6 µM corresponded to half-maximal inhibition at H3R (IC50).
`O=C1CCc2cc(OCCCN3CCC(c4ccccc4)CC3)ccc2N1` [Compound 2i, 6-(3-(4-Phenylpiperidin-1-yl)propoxy)-3,4-dihydroquinolin-2(1H)-one]: the melting point is 174 to 176 °C. Also, the IC50 against H3R was found to be 38.5 µM.
Taken in the same sequence, the figures for `O=C1CCc2cc(OCCCCN3CCCCC3)ccc2N1` [Compound 3b, 6-(4-(Piperidin-1-yl)butoxy)-3,4-dihydroquinolin-2(1H)-one] were 150 to 151 °C and 2.88 µM.
Take `O=C1CCc2cc(OCCN3CCCCC3)ccc2N1` [Compound 3a, 6-(2-(Piperidin-1-yl)ethoxy)-3,4-dihydroquinolin-2(1H)-one]: the melting point lay within 147 to 149 °C. On H3R, the IC50 turned out to be 7.49 µM.
`O=C1CCc2cc(OCCCN3CCOCC3)ccc2N1` [Compound 2g, 6-(3-(Morpholino)propoxy)-3,4-dihydroquinolin-2(1H)-one] registered a melting point of 146 to 147 °C. Also, the IC50 against H3R was determined as 46 µM.
Molecule `CCN(CC)CCCOc1ccc2c(c1)CCC(=O)N2` [Compound 2a, 6-(3-(Diethylamino)propoxy)-3,4-dihydroquinolin-2(1H)-one hydrochioride] displayed a melting point of 68 to 70 °C. For the same molecule, the “Duration of tonic hind limb extension” value in data set [2] (setting [7]) is recorded as “no significant difference”. Besides, the IC50 at H3R was 0.52 µM.
